Like-named read-outs stand apart in the source and are kept apart here.
What was measured:
CFTR channel [1] = target: T1, CFTR channel (Homo sapiens, UniProt P13569); assay: Efflux of radioactive iodide in recombinant CHO (CFTR+) cells; assay type: cell-based; set-up: expressed in transfected cells; host or cells: CHO-K1 cells, vector pNUT; details: for effect on the efflux of iodide / CFTR channel activation: 500 μM; for activation at 500 µM: read-out: % activation relative to control
Description: (§1) Several types of cells are used for this study: the intestinal lines T84, Caco-2 and HT 29. Chinese hamster ovary (CHO-K1) cells were transfected with the aid of the vector pNUT (Tabcharani et al., 1991) with or without (control cells) incorporation of normal or mutated CFTR cDNA (Chang et al., 1993). The cells are kept in this specific medium and then inoculated at a low density on to glass slides and cultured at 37° C. (5% CO2), before the patch clamping experiments. The survival medium of the cells is composed of αMEM with foetal calf serum (7%) and antibiotics: 50 IU/ml penicillin and 50 μg/ml streptomycin and methotrexate (100 μM to 200 μM).
(§2) This technique enables the kinetics of the exit of iodide to be monitored. The cells are cultured in 12-well plates with a dilution to 1/10 after passage. On day 3, the drugs to be tested are dissolved in medium B (37° C.) according to the required concentration. The wells are washed twice with 1 ml of medium B NaOH, 0.1% glucose, which is then replaced by 1 ml of charging solution for 30 min.
(§3) The operation is repeated over 10 min and the cells are then detached with 1 ml of NaOH 0.1N SDS 0.1%. The contents of each well are collected in a haemolysis tube after agitation for 25 min, and the tubes are counted for 2 min in a gamma counter.
(§4) The study relates to molecules of the benzoquinolizinium family described above. They are tested for their ability to activate the CFTR channel. Screening of molecules as openers of the CFTR channel was carried out by measuring their effect on the efflux of radioactive iodide and on the transmembrane chloride currents (Becq et al., 1993a).
2) CHO cell: efflux of radioactive iodide in
CHO cells transfected with the CFTR chain (labelled CHO-CFTR (+) on FIG. 2B) in the presence or absence of the abovementioned activators.

CHO (CFTR−) cells = assay: Efflux of radioactive iodide in control CHO (CFTR−) cells not transfected with CFTR; assay type: cell-based, Chinese hamster
Description: CHO cells which have not been transfected with the protein CFTR (labelled CHO-CFTR (−) on FIG. 2 B) in the presence or absence of the abovementioned activators:

CFTR channel [2] = target: T1, CFTR channel; assay: Efflux of radioactive iodide in HT29 cells; assay type: cell-based; set-up: the human colon cell of the line HT29 which expresses the protein CFTR constitutively; endogenous in cells; host or cells: HT29 human colon cells; details: 500 μM
Description: as §1, §2, §3

intracellular cAMP = assay: Level of intracellular cAMP in recombinant CHO cell; assay type: cell-based, Chinese hamster; details: after 5 min
Description: as §4
FIG. 12: Histograms representing the levels of cAMP (measured in nmol per mg of protein) in the CHO cells which have been transfected with the CFTR gene and have not been activated (basal), or have been activated by forskoline (forskoline), or have been activated by rolipram (rolipram), or have been activated by MPB-07 (MPB-07).

CFTR channel [3] = target: T1, CFTR channel; assay: Efflux of radioactive iodide in Xenopus ovocyte injected with cRNA-CFTR; assay type: cell-based; details: Xenopus ovocyte expressing CFTR, 500 μM
CFTR channel [4] = target: T1, CFTR channel; assay: Patch clamping, CFTR channel activation; assay type: cell-based; set-up: expressed in transfected cells; host or cells: CHO-K1 cells, vector pNUT; details: rolipram
Description: The patch clamping experiments are carried out on confluent cells. A fragment of the glass slide (cell support) is placed in an experimental chamber (volume 600 μl or 1 ml) on the platen of an inverted microscope fitted with phase contrast illumination (Olympus IMT2). The cell-attached and inside-out configurations are used (Hamill et al., 1981). The experiments are carried out at room temperature (20-22° C.). The currents are amplified with a LIST EPC 7 amplifier (Darmstadt, Germany) (filter of 3 kHz) with a low-pass filter of 2-5 kHz (6-pole Bessel filter) and recorded with a DAT (digital audio tape) after digitalization (16 bits) at 44 kHz. The data are then transferred to an Olivetti M28PC computer. The pipettes are made from glass tubes of 1 mm diameter (Clarke Electromedical Instrument) in two or three stages with a horizontal drawer (Flaming/Brown type, model P-87. Sutter. Inst. Co. USA). The pipettes filled with a solution of 150 mM NaCI have a resistance of between 4 and 12 MΩ. The potentials are expressed as the difference between the potential of the patch electrode and that of the bath. […] The diffusion potentials are evaluated from the potential of the electrode corresponding to a zero current (when the channels are closed). […] To determine the current-voltage ratio, the ionic current amplitudes are measured form amplitude histograms. […]

[5] = efflux of iodide, recombinant CHO (CFTR+) cell, MPB and phenanthrene 500 μM

T1 sequence (P13569 whole entry): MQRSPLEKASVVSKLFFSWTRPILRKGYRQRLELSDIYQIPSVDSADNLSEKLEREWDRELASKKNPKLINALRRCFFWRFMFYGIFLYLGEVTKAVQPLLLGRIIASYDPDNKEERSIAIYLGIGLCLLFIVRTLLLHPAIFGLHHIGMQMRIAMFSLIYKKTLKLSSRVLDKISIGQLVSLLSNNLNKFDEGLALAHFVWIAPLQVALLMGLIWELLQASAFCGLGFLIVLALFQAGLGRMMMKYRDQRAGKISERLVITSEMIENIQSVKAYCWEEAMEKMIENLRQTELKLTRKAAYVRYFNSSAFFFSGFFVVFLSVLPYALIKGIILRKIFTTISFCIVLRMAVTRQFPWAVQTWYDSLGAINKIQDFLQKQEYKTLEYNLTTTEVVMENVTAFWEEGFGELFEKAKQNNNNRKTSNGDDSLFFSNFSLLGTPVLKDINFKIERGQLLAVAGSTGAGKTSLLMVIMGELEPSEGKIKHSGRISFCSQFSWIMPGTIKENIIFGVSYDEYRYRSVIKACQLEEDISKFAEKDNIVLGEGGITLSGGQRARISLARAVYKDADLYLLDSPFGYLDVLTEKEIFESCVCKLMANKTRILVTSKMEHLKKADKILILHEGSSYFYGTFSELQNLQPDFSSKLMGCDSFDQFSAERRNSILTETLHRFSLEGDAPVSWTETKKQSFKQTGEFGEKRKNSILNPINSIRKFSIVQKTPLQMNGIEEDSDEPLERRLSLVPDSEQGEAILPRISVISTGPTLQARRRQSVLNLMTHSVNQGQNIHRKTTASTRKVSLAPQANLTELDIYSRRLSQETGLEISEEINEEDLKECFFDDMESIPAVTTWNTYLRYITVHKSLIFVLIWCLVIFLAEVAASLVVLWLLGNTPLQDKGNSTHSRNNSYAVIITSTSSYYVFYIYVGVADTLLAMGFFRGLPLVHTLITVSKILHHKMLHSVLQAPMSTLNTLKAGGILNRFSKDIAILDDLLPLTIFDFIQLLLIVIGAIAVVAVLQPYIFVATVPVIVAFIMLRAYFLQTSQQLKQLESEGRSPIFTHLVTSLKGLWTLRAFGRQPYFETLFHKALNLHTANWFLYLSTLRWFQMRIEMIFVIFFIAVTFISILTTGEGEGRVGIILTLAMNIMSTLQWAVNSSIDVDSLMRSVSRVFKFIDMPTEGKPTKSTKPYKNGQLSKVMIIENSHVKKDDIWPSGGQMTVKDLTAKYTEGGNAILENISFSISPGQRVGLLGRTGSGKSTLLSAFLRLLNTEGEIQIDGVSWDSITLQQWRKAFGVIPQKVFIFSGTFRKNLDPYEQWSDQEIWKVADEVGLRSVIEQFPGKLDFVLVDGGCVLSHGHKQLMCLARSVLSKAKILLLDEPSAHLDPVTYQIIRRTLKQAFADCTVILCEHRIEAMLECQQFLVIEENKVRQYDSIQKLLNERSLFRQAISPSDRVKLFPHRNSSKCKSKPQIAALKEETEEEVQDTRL

## Nc1cc2cccc[n+]2c2ccccc12 [MPB-26, 6-Aminobenzo[c]quinolizium]
CFTR channel [1]; [5]
  % activation relative to control: 30%

## 6-Hydroxbenzo[c]quinolizinium Bromide [MPB-06]
CFTR channel [1]; [5]
  % activation relative to control: 53%

## c1ccc2c(c1)ccc1ccccc12 [phenanthrene, reference compound]
CFTR channel [1]; CHO (CFTR+) cells
  effect on the efflux of iodide / CFTR channel activation: does not activate the CFTR channel
CFTR channel [1]; [5]
  activation at 500 µM: < 5%

## Nc1cc2ccccc2c2ccccc12 [MPB-24]
CFTR channel [1]
  activation at 500 µM: 18%

## CNc1ccc2oc(C[C@H]3O[C@@]4(CC[C@H]3C)O[C@H]([C@H](C)C(=O)c3ccc[nH]3)[C@H](C)C[C@H]4C)nc2c1C(=O)O [Compound A23187, reference compound]
CFTR channel [1]; CHO (CFTR+) cells, 10 μM
  effect on the efflux of iodide: has no effect
CHO (CFTR−) cells; 10 μM
  effect on the basal level of the efflux of iodide: do not significantly modify the basal level of the efflux of iodide

## Nc1cc2cccc[n+]2c2cccc(Cl)c12 [MPB-04, 6-Amino, 7-Chlorobenzo[c]quinolizinium Chloride]
CFTR channel [1]; [5]
  activation at 500 µM: 11%

## Oc1cc2ccccc2c2ccccc12 [MPB-25]
CFTR channel [1]
  activation at 500 µM: 25%

## Oc1cc2cccc[n+]2c2ccccc12 [MPB-05, 6-Hydroxybenzo[c]quinolizinium Chloride]
CFTR channel [1]; [5]
  activation at 500 µM: 20%

## Oc1cc2cccc[n+]2c2cccc(Cl)c12 [MPB-27, 6-Hydroxy, 7-Chlorobenzo[c]quinolizinium Chloride]
CFTR channel [1]; [5]
  activation at 500 µM: 95%

## Nc1cc2cccc[n+]2c2cc(Cl)ccc12 [MPB-03, 6-Amino, 9-Chlorobenzo[c]quinolizinium Chloride]
CFTR channel [1]; [5]
  activation at 500 µM: 18%

## Oc1cc2cccc[n+]2c2c(Cl)cccc12.[Cl-] [MPB-07, 6-Hydroxy, 10-Chlorobenzo[c]quinolizinium Chloride]
CFTR channel [2]
  effect on the efflux of iodide: triggers an efflux of iodide, with a similar rate and amplitude, which is increased with respect to the basal level
CFTR channel [1]; CHO (CFTR+) cells
  effect on the efflux of iodide / CFTR channel activation: comparable in intensity and rate to that induced by forskoline (5 μM)
CFTR channel [1]; [5]
  activation at 500 µM: 110%
CHO (CFTR−) cells; 500 μM
  effect on the basal level of the efflux of iodide: do not significantly modify the basal level of the efflux of iodide
Intracellular cAMP; 500 μM
  level of cell cAMP: The same level of cAMP is reached in the presence of the compounds MPB-07 and rolipram
CFTR channel [3]
  effect on the efflux of iodide: stimulates the efflux of iodide

## Nc1ncnc2c1nc(Sc1ccc(Cl)cc1)n2[C@@H]1O[C@@H]2COP(=O)(O)O[C@H]2[C@H]1O [c-cpt-AMP, cyclic 8-(4-chlorophenylthio)-adenosine 3′,5′-monophosphate]
CHO (CFTR−) cells; 500 μM
  effect on the basal level of the efflux of iodide: has no effect

## COc1ccc(C2CNC(=O)C2)cc1OC1CCCC1 (centres unmarked) [rolipram]
CFTR channel [1]; rolipram
  effect as a CFTR activator measured by the flow of iodide: has no effect as a CFTR activator
CFTR channel [4]
  effect as a CFTR activator measured by patch clamping: has no effect as a CFTR activator
Intracellular cAMP; 10 μM
  level of cell cAMP: The same level of cAMP is reached in the presence of the compounds MPB-07 and rolipram

## C=C[C@@]1(C)CC(=O)[C@]2(O)[C@@]3(C)[C@@H](O)CCC(C)(C)[C@@H]3[C@H](O)[C@H](OC(C)=O)[C@@]2(C)O1 [forskoline]
CFTR channel [1]; efflux of iodide, recombinant CHO (CFTR+) cell, forskoline 5 μM
  % activation relative to control: 109%
CHO (CFTR−) cells; 5 μM
  effect on the basal level of the efflux of iodide: do not significantly modify the basal level of the efflux of iodide
Intracellular cAMP; 5 μM
  effect on cAMP, multiplication factor: about 4

## Oc1cc2cccc[n+]2c2cc(Cl)ccc12 [MPB-08, 6-Hydroxy, 9-Chlorobenzo[c]quinolizinium Chloride]
CFTR channel [1]; [5]
  activation at 500 µM: 22%
